“Also recorded” adds a separate entry of the source.
Legend:
α1A-AR [1] = target: T1, α1A-AR (Homo sapiens, UniProt P35348); test: Effect of compound on binding affinity of norepinephrine, epinephrine or other ligands at α1A-AR; design: expressed in transfected cells; host or cells: Rat-1 fibroblast cells
T1 sequence (P35348 1-466): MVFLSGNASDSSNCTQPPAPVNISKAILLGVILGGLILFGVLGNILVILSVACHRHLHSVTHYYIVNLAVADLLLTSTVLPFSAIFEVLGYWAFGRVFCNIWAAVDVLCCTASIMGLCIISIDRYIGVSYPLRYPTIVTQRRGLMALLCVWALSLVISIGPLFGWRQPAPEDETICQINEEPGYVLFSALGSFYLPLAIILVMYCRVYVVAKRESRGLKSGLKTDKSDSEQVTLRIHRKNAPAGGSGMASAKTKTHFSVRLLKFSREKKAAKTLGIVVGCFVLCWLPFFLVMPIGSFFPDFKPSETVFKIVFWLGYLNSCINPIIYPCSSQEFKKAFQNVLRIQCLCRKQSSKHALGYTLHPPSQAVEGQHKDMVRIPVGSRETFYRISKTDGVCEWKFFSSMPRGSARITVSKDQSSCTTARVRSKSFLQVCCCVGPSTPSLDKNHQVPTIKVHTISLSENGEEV
Experimental: (§1) Competition binding assays: These compounds were characterized for their ligand binding properties at the α1-AR subtypes. The binding affinities of Compounds 1-10 were determined in a series of competition-binding experiments with the α1-AR-selective antagonist [^125I]HEAT as the radioligand. Assays were performed in duplicate in HEM buffer, in a total assay volume of 1000 μl. Radioligand binding assays are composed of 5 ug of membranes, harvested from Rat-1 fibroblast cells expressing only one of the alpha1-AR subtypes, HEM buffer containing GTP (composed of 20 mM HEPES, pH 7.4, 1.4 mM EGTA, 12.5 mM MgCl2, pH to 7.4), 0.5 mM GTP, 35-80 pM^125I-HEAT, and various doses of norepinephrine or epinephrine and incubated with shaking at 25° C. for 1-2 hours. The above conditions will convert all the conformations of the receptor into a single low affinity site. To show both high and low affinity sites of the receptor (typically seen with GPCR agonists), the GTP is removed from the binding buffer. Nonspecific binding was determined experimentally in the presence of 10^−4 M phentolamine. Unbound radioactivity was separated from membrane-bound radioactivity by filtration through Whatman GF/C filter paper. Filters are washed five times with 5 ml of cold HEM buffer containing 0.5 mMGTP (if added to the binding buffer but not if it was not added to the binding buffer). Bound radioactivity remaining on the filters was counted on an ICN gamma counter operating at 79.8% efficiency. Data are analyzed using Graphpad Prism.
To determine the effects of compounds 1-10 on the binding affinity of norepinephrine or epinephrine, the competition binding assay was repeated as above with one dose of each individual compound (i.e. 10^−5M) added to each concentration point. Data are normalized to the norepinephrine or epinephrine binding curve alone without the addition of the compound to measure its effect on binding.

α1B-AR = target: T2, α1B-AR (Homo sapiens, UniProt P35368); test: Competition binding with [125I]HEAT at α1B-AR
T2 construct: expressed in transfected cells; host or cells: Rat-1 fibroblast cells
T2 sequence (P35368 1-520): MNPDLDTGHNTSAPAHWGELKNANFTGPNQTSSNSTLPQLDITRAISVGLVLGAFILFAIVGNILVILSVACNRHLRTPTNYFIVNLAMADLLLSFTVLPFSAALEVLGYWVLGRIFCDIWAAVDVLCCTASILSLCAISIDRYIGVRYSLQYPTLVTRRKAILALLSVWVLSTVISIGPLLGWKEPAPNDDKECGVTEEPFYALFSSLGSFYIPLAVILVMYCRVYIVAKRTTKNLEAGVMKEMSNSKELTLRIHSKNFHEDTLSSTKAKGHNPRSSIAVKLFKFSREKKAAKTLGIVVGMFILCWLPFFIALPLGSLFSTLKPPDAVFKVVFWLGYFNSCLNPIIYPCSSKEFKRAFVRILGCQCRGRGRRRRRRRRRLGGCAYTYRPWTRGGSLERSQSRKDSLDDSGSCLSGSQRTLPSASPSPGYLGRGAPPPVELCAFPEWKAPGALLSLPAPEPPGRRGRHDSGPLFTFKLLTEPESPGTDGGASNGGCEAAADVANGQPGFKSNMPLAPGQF
Experimental: as §1, with “Filters are washed five times with 5 ml of cold HEM buffer containing 0.5 mMGTP (if added to the binding buffer but not if it was not added to the binding buffer).” left out

α1A-AR [2] = target: T1, α1A-AR; test: Effect of compound on binding affinity of norepinephrine, epinephrine or other ligands at α1A-AR; design: expressed in transfected cells; host or cells: Rat-1 fibroblast cells; remark: listed apart in the source
α1D-AR = target: T3, α1D-AR (Homo sapiens, UniProt P25100); test: Effect of compound on binding affinity of norepinephrine at α1D-AR; conditions: 10^−5M
T3 construct: expressed in transfected cells; host or cells: Rat-1 fibroblast cells
T3 sequence (P25100 1-572): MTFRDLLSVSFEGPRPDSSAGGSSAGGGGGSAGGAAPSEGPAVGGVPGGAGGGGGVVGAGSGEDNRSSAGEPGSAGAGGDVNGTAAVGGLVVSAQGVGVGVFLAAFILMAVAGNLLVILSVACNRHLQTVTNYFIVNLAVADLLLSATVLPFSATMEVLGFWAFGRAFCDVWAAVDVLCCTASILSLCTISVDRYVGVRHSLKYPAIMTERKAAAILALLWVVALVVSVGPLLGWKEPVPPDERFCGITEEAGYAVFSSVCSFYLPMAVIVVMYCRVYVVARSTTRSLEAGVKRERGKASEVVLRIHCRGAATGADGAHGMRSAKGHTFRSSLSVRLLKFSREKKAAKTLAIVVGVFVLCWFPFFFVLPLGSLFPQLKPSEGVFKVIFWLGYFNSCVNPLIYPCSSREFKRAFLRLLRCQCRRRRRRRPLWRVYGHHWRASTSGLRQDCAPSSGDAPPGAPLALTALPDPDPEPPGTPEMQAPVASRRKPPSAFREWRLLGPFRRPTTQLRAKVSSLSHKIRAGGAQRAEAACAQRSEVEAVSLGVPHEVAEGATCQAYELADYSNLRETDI
Experimental: as §1, with “Filters are washed five times with 5 ml of cold HEM buffer containing 0.5 mMGTP (if added to the binding buffer but not if it was not added to the binding buffer).” left out, “Prism. […]” for “Prism.”

## CC(C)Cc1c(OCC2=NCCN2)cccc1N(C)S(C)(=O)=O [Compound 3, N-[3-(4,5-Dihydro-1H-imidazol-2-ylmethoxy)-2-isobutyl-phenyl]-N-methyl-methanesulfonamide]
α1A-AR [1]; 10^−5M (highest dose tested)
  effect on binding affinity of epinephrine at the α1A-AR: no effect
α1A-AR [1]; fixed dose of compound, 10^−5M to 10^−9M
  effect on binding affinity of norepinephrine at the α1A-AR: increasing the affinity of norepinephrine in a dose-specific manner
α1B-AR
  specific binding at the α1B-AR: little, if any, specific binding; also recorded: no affinity
α1A-AR [2]; 10^−5M
  effect on binding of phentolamine at the α1A-AR: no effect; also recorded: does not change the affinity
α1A-AR [2]; 10^−5M and 10^−7M
  effect on binding of cirazoline at the α1A-AR: does not affect; also recorded: no effect
α1D-AR
  effect on affinity of norepinephrine at the α1D-AR: no effect; also recorded: does not increase the affinity of norepinephrine
